From patent US20180298405A1, “METHODS AND COMPOSITIONS TO INCREASE HUMAN SOMATIC CELL NUCLEAR TRANSFER (SCNT) EFFICIENCY BY REMOVING HISTONE H3-LYSINE TRIMETHYLATION, AND DERIVATION OF HUMAN NT-ESC” (CHILDREN'S MEDICAL CENTER CORPORATION, priority 2015, published 2018)

Tested on: reprogramming resistant regions (RRRs) / ZGA genes
Assay: RNA-seq of late 8-cell human SCNT embryos with or without KDM4A mRNA injection (ZGA of RRRs, KDM4A-responsive genes)
Assay type: cell-based
Settings: 8-cell embryos
Source text: A sliding window (size 20 kb, step size 10 kb) was used to assess the genome-wide expression level of 4-cell and 8-cell human embryos. For each window, the expression level was quantified with normalized RPM (reads per millions of uniquely mapped reads). […] These activated regions were classed into three groups based on their expression differences in human SCNT and IVF 8-cell embryos.
The SCNT embryos used for ZGA analysis were generated using oocytes donated by a single healthy person (#64) and dermal fibroblast cells from an AMD patient (DFB-8). SCNT and IVF embryos were cultured up to late 8-cell stage, when the compaction of blastomeres is initiated, then they were treated briefly with acid Tyrode solution to remove zona pellucida. To prepare for the 8-cell SCNT embryo, oocytes from a single oocyte donor, and skin fibroblast cells from a single somatic nuclear donor were used. All the procedures are the same as described in the “Human SCNT procedure and KMD4A mRNA injection” section. Only embryos that reached the late 8-cell stage synchronically 74 hours post activation were collected and used for this experiment.
For preparation of the control IVF embryos, several donated early 8-cell stage IVF embryos were thawed and cultured for 5-7 hours to allow them to reach late 8-cell stage before being processed. After removal of the zona pellucida, the denuded embryos were washed 3 times in PBS, loaded into RNAse and DNAse free PCR tubes, spin downed, and snap frozen in liquid nitrogen. Then, they were kept at −80° C. until use. As controls, dermal fibroblast cells of somatic nuclear donors were also prepared. Those fibroblast cells were cultured in a 25 cm^2 flask in DMEM 10% FBS, and approximately 10,000 cells/donor were collected, snap frozen, and stored at −80° C. until use.
Five 8-cell embryos for each group were directly lysed and used for cDNA synthesis using SMART-Seq v4 Ultra Low Input RNA Kit (Clontech). For MEF donor, 10 ng total RNA was used for cDNA synthesis using SMART-Seq v4 Ultra Low Input RNA Kit. After amplification, the cDNA samples were fragmented using Covaris sonicator M220 to an average size of 150 bp (Covaris). Sequencing libraries were made with the fragmented DNA using NEBNext Ultra DNA Library Prep Kit for Illumina according to manufacturer's instruction (New England Biolabs) with different barcodes. For each RNA-seq analysis of hESCs, 1 μg total RNA was used for mRNA purification. Barcoded RNA-seq libraries were generated using NEBNext Ultra Directional RNA Library Prep Kit for Illumina (New England Biolabs). Single end 50 bp sequencing was performed on a HiSeq 2500 sequencer (Illumina). Sequencing reads were mapped to the human genome (hg19) with Tophat2. All programs were performed with default settings (unless otherwise specified). At least 22 million uniquely mapped reads were obtained for each sequencing library, and subsequently assembled into transcripts guided by the reference annotation (Refseq gene models) with Cufflinks v2.0.2. Expression level of each gene was quantified with normalized FPKM (fragments per kilobase of exon per million mapped fragments). Statistical analyses were performed with R (available at: “www.r-project.org/”). Independent 2 group Wilcoxon rank sum tests were used to compare distributions using the wilcox.test function in R. Pearson's r coefficient was calculated using the cor function with default parameters. The hierarchical clustering analysis of the global gene expression pattern in different samples was carried out using heatmap.2 function (gplots package) in R.

KDM4A mRNA: in vitro transcribed mRNA of full length human KDM4A/JHDM3A cDNA, an H3K9me3 demethylase (SEQ ID NO: 1)
NDUFAF2 Fold Change (log2) [KDM4A SCNT/Control SCNT]: 1.16 log2 | NMNAT1 Fold Change (log2) [KDM4A SCNT/Control SCNT]: 1.28 log2 | NOC4L Fold Change (log2) [KDM4A SCNT/Control SCNT]: 1.15 log2 | NOP58 Fold Change (log2) [KDM4A SCNT/Control SCNT]: 1.4 log2 | NUDT9 Fold Change (log2) [KDM4A SCNT/Control SCNT]: 1.82 log2 | PAGE5 Fold Change (log2) [KDM4A SCNT/Control SCNT]: 1.24 log2 | PDCD11 Fold Change (log2) [KDM4A SCNT/Control SCNT]: 1.11 log2 | PDE4DIP Fold Change (log2) [KDM4A SCNT/Control SCNT]: 1.79 log2 | PHOSPHO1 Fold Change (log2) [KDM4A SCNT/Control SCNT]: 1.46 log2 | PIK3R4 Fold Change (log2) [KDM4A SCNT/Control SCNT]: 1.58 log2 | PLBD1 Fold Change (log2) [KDM4A SCNT/Control SCNT]: 1.69 log2 | PLD2 Fold Change (log2) [KDM4A SCNT/Control SCNT]: 1.2 log2 | PLVAP Fold Change (log2) [KDM4A SCNT/Control SCNT]: 1.63 log2 | POLR3K Fold Change (log2) [KDM4A SCNT/Control SCNT]: 1.34 log2 | POTEM Fold Change (log2) [KDM4A SCNT/Control SCNT]: 1.56 log2 | PPM1N Fold Change (log2) [KDM4A SCNT/Control SCNT]: 1.68 log2 | PPP2CB Fold Change (log2) [KDM4A SCNT/Control SCNT]: 2.17 log2 | PRAMEF3 Fold Change (log2) [KDM4A SCNT/Control SCNT]: 2.4 log2 | PRAMEF4 Fold Change (log2) [KDM4A SCNT/Control SCNT]: 1.02 log2 | PRAMEF6 Fold Change (log2) [KDM4A SCNT/Control SCNT]: 1.08 log2 | PRAMEF10 Fold Change (log2) [KDM4A SCNT/Control SCNT]: 1.05 log2 | PRAMEF11 Fold Change (log2) [KDM4A SCNT/Control SCNT]: 1.31 log2 | PRAMEF17 Fold Change (log2) [KDM4A SCNT/Control SCNT]: 1.44 log2 | PRPF39 Fold Change (log2) [KDM4A SCNT/Control SCNT]: 1.4 log2 | PTPN22 Fold Change (log2) [KDM4A SCNT/Control SCNT]: 2.57 log2 | RAB9A Fold Change (log2) [KDM4A SCNT/Control SCNT]: 1.39 log2 | RASA2 Fold Change (log2) [KDM4A SCNT/Control SCNT]: 1.36 log2 | RFK Fold Change (log2) [KDM4A SCNT/Control SCNT]: 1.29 log2 | RNU11 Fold Change (log2) [KDM4A SCNT/Control SCNT]: 5.27 log2 | RP2 Fold Change (log2) [KDM4A SCNT/Control SCNT]: 1.82 log2 | RPF2 Fold Change (log2) [KDM4A SCNT/Control SCNT]: 1.46 log2 | RPS6KB2 Fold Change (log2) [KDM4A SCNT/Control SCNT]: 1.81 log2 | SAMD8 Fold Change (log2) [KDM4A SCNT/Control SCNT]: 1.14 log2 | SCO1 Fold Change (log2) [KDM4A SCNT/Control SCNT]: 1.15 log2 | SEPX1 Fold Change (log2) [KDM4A SCNT/Control SCNT]: 1.36 log2 | SERTAD1 Fold Change (log2) [KDM4A SCNT/Control SCNT]: 1.12 log2 | SFTPD Fold Change (log2) [KDM4A SCNT/Control SCNT]: 2.45 log2 | SGCG Fold Change (log2) [KDM4A SCNT/Control SCNT]: 2.73 log2 | SGPP1 Fold Change (log2) [KDM4A SCNT/Control SCNT]: 1.41 log2 | SHFM1 Fold Change (log2) [KDM4A SCNT/Control SCNT]: 1.73 log2 | SIAH1 Fold Change (log2) [KDM4A SCNT/Control SCNT]: 1.7 log2 | SNAPC1 Fold Change (log2) [KDM4A SCNT/Control SCNT]: 1.71 log2 | SNAR-C3 Fold Change (log2) [KDM4A SCNT/Control SCNT]: 1.85 log2 | SNAR-E Fold Change (log2) [KDM4A SCNT/Control SCNT]: 1.72 log2 | SNHG9 Fold Change (log2) [KDM4A SCNT/Control SCNT]: 1.3 log2 | SNHG12 Fold Change (log2) [KDM4A SCNT/Control SCNT]: 1.42 log2 | SPINK7 Fold Change (log2) [KDM4A SCNT/Control SCNT]: 5.38 log2 | SRA1 Fold Change (log2) [KDM4A SCNT/Control SCNT]: 1.23 log2 | SSX3 Fold Change (log2) [KDM4A SCNT/Control SCNT]: 1.1 log2 | STAG3L2 Fold Change (log2) [KDM4A SCNT/Control SCNT]: 1.35 log2 | STAG3L4 Fold Change (log2) [KDM4A SCNT/Control SCNT]: 1.17 log2 | STAP2 Fold Change (log2) [KDM4A SCNT/Control SCNT]: 1.25 log2 | SUZ12P Fold Change (log2) [KDM4A SCNT/Control SCNT]: 1.68 log2 | TAC1 Fold Change (log2) [KDM4A SCNT/Control SCNT]: 1.38 log2 | TCEANC2 Fold Change (log2) [KDM4A SCNT/Control SCNT]: 1.13 log2 | TCN2 Fold Change (log2) [KDM4A SCNT/Control SCNT]: 1.4 log2 | TEN1 Fold Change (log2) [KDM4A SCNT/Control SCNT]: 1.66 log2 | THOC5 Fold Change (log2) [KDM4A SCNT/Control SCNT]: 1.46 log2 | TIMM10 Fold Change (log2) [KDM4A SCNT/Control SCNT]: 1.41 log2 | TMEM41B Fold Change (log2) [KDM4A SCNT/Control SCNT]: 1.14 log2 | TMEM92 Fold Change (log2) [KDM4A SCNT/Control SCNT]: 1.42 log2 | TMEM159 Fold Change (log2) [KDM4A SCNT/Control SCNT]: 1.17 log2 | TRIM39-RPP21 Fold Change (log2) [KDM4A SCNT/Control SCNT]: 1.09 log2 | TRIML2 Fold Change (log2) [KDM4A SCNT/Control SCNT]: 1.55 log2 | TSEN34 Fold Change (log2) [KDM4A SCNT/Control SCNT]: 1.28 log2 | TTC27 Fold Change (log2) [KDM4A SCNT/Control SCNT]: 1.72 log2 | TTC28-AS1 Fold Change (log2) [KDM4A SCNT/Control SCNT]: 1.74 log2 | UBTFL1 Fold Change (log2) [KDM4A SCNT/Control SCNT]: 1.8 log2 | UTP3 Fold Change (log2) [KDM4A SCNT/Control SCNT]: 1.08 log2 | UTP23 Fold Change (log2) [KDM4A SCNT/Control SCNT]: 1.35 log2 | UTS2 Fold Change (log2) [KDM4A SCNT/Control SCNT]: 1.28 log2 | VAMP1 Fold Change (log2) [KDM4A SCNT/Control SCNT]: 2.23 log2 | VCX2 Fold Change (log2) [KDM4A SCNT/Control SCNT]: 1.77 log2 | VCX Fold Change (log2) [KDM4A SCNT/Control SCNT]: 1.72 log2 | VPS54 Fold Change (log2) [KDM4A SCNT/Control SCNT]: 2.28 log2 | WDR77 Fold Change (log2) [KDM4A SCNT/Control SCNT]: 1.18 log2 | XAGE5 Fold Change (log2) [KDM4A SCNT/Control SCNT]: 1.07 log2 | ZCCHC10 Fold Change (log2) [KDM4A SCNT/Control SCNT]: 1.22 log2 | ZFYVE19 Fold Change (log2) [KDM4A SCNT/Control SCNT]: 1.49 log2 | ZNF92 Fold Change (log2) [KDM4A SCNT/Control SCNT]: 1.03 log2 | ZNF100 Fold Change (log2) [KDM4A SCNT/Control SCNT]: 2.53 log2 | ZNF174 Fold Change (log2) [KDM4A SCNT/Control SCNT]: 1.24 log2 | ZNF208 Fold Change (log2) [KDM4A SCNT/Control SCNT]: 1.57 log2 | ZNF254 Fold Change (log2) [KDM4A SCNT/Control SCNT]: 1.37 log2 | ZNF273 Fold Change (log2) [KDM4A SCNT/Control SCNT]: 1.11 log2 | ZNF280A Fold Change (log2) [KDM4A SCNT/Control SCNT]: 1.34 log2 | ZNF326 Fold Change (log2) [KDM4A SCNT/Control SCNT]: 1.37 log2 | ZNF345 Fold Change (log2) [KDM4A SCNT/Control SCNT]: 1.46 log2 | ZNF486 Fold Change (log2) [KDM4A SCNT/Control SCNT]: 1.74 log2 | ZNF487P Fold Change (log2) [KDM4A SCNT/Control SCNT]: 1.2 log2 | ZNF625-ZNF20 Fold Change (log2) [KDM4A SCNT/Control SCNT]: 2.32 log2 | ZNF625 Fold Change (log2) [KDM4A SCNT/Control SCNT]: 1.87 log2 | ZNF669 Fold Change (log2) [KDM4A SCNT/Control SCNT]: 1.08 log2 | ZNF675 Fold Change (log2) [KDM4A SCNT/Control SCNT]: 1.87 log2 | ZNF676 Fold Change (log2) [KDM4A SCNT/Control SCNT]: 1.29 log2 | ZNF679 Fold Change (log2) [KDM4A SCNT/Control SCNT]: 2.13 log2 | ZNF680 Fold Change (log2) [KDM4A SCNT/Control SCNT]: 1.18 log2 | ZNF684 Fold Change (log2) [KDM4A SCNT/Control SCNT]: 1.53 log2 | ZNF700 Fold Change (log2) [KDM4A SCNT/Control SCNT]: 1.49 log2 | ZNF724P Fold Change (log2) [KDM4A SCNT/Control SCNT]: 1.04 log2 | ZNF729 Fold Change (log2) [KDM4A SCNT/Control SCNT]: 1.75 log2 | ZNF735 Fold Change (log2) [KDM4A SCNT/Control SCNT]: 1.24 log2 | ZNF789 Fold Change (log2) [KDM4A SCNT/Control SCNT]: 1.28 log2 | ZNF791 Fold Change (log2) [KDM4A SCNT/Control SCNT]: 1.38 log2
